Results on one compound are retold here after ChEMBL document CHEMBL1125873 (J Med Chem, 1991).

Molecules are shown by their SMILES.

The nature of data set [1]: Loss of first equivalent halide ion using Chloride ion electrode experiments. It counts as ADME.
A short description of data set [2]: Half-life value of the compound. The data set is classed as ADME.

Usually half-life stands for the time in which the quantity being followed falls by half. Consider `O=P(O)(NCCCl)NCCCl` [PALIFOSFAMIDE], for which the “k x10e3” value in data set [1] is 10 min-1. Moreover, in data set [2], the half-life is 1.15 h.
